Tests used:
B. subtilis 168 = assay: fitness (endpoint OD595 vs no drug) (fraction); higher = more growth
Procedure, shortened: (§1)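 Background-subtracted growth curves were the basis for fitness, taken as the optical density at entry into stationary phase over the robust mean of no-drug control wells. A cap of 1 was applied. The curves came from OD595 readings every 30 min for 14 h at 37 °C, in 384-well plates seeded at OD595 0.01 with 30 µl, or 55 µl for S. pneumoniae.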

S. pneumoniae D39V = assay: as above
Procedure, shortened: as §1

CN(C)[C@@H]1C(O)=C(C(N)=O)C(=O)[C@@]2(O)C(O)=C3C(=O)c4c(O)ccc(Cl)c4[C@@](C)(O)[C@H]3C[C@@H]12 [Chlortetracycline] + CN(C)C(=O)C(CCN1CCC(O)(c2ccc(Cl)cc2)CC1)(c1ccccc1)c1ccccc1 [Loperamide]
Settings	fitness
B. subtilis 168, first compound 0.0475 µg/mL, partner 50 µg/mL	0.0353
B. subtilis 168, first compound 0.0475 µg/mL, partner 100 µg/mL	0.0088
B. subtilis 168, first compound 0.095 µg/mL, partner 25 µg/mL	0.0158
B. subtilis 168, first compound 0.095 µg/mL, partner 50 µg/mL	0.0367
B. subtilis 168, first compound 0.095 µg/mL, partner 100 µg/mL	0.0243
B. subtilis 168, first compound 0.19 µg/mL, partner 25 µg/mL	0.0386
B. subtilis 168, first compound 0.19 µg/mL, partner 50 µg/mL	0.05
B. subtilis 168, first compound 0.19 µg/mL, partner 100 µg/mL	0.0328
S. pneumoniae D39V, first compound 0.012 µg/mL, partner 17.14 µg/mL	0.967
S. pneumoniae D39V, first compound 0.012 µg/mL, partner 34.28 µg/mL	0.899
S. pneumoniae D39V, first compound 0.024 µg/mL, partner 17.14 µg/mL	0.926
S. pneumoniae D39V, first compound 0.024 µg/mL, partner 34.28 µg/mL	0.909
S. pneumoniae D39V, first compound 0.048 µg/mL, partner 17.14 µg/mL	0.829
S. pneumoniae D39V, first compound 0.048 µg/mL, partner 34.28 µg/mL	0.844
S. pneumoniae D39V, first compound 0.375 µg/mL, partner 20 µg/mL	0.0446
S. pneumoniae D39V, first compound 0.375 µg/mL, partner 40 µg/mL	0.0664
S. pneumoniae D39V, first compound 0.375 µg/mL, partner 80 µg/mL	0.065
S. pneumoniae D39V, first compound 0.75 µg/mL, partner 20 µg/mL	0.0563
S. pneumoniae D39V, first compound 0.75 µg/mL, partner 40 µg/mL	0.0762
S. pneumoniae D39V, first compound 0.75 µg/mL, partner 80 µg/mL	0.0821
S. pneumoniae D39V, first compound 1.5 µg/mL, partner 20 µg/mL	0.04
S. pneumoniae D39V, first compound 1.5 µg/mL, partner 40 µg/mL	0.0491
S. pneumoniae D39V, first compound 1.5 µg/mL, partner 80 µg/mL	0.0392

S. pneumoniae D39V, partner 68.57 µg/mL, one replicate
Settings	fitness
first compound 0.012 µg/mL	0.908
first compound 0.024 µg/mL	0.92
first compound 0.048 µg/mL	0.8

CN(C)[C@@H]1C(O)=C(C(N)=O)C(=O)[C@@]2(O)C(O)=C3C(=O)c4c(O)ccc(Cl)c4[C@@](C)(O)[C@H]3C[C@@H]12 [Chlortetracycline] + CN[C@@H]1[C@H](O[C@H]2[C@H](O[C@H]3[C@H](O)[C@@H](O)[C@H](N=C(N)N)[C@@H](O)[C@@H]3N=C(N)N)O[C@@H](C)[C@]2(O)C=O)O[C@@H](CO)[C@H](O)[C@H]1O [Streptomycin]
fitness
Settings	partner 2 µg/mL	partner 4 µg/mL	partner 8 µg/mL
B. subtilis 168, first compound 0.0475 µg/mL	0.863	0.729	–
B. subtilis 168, first compound 0.095 µg/mL	0.735	0.601	–
B. subtilis 168, first compound 0.19 µg/mL	0.473	0.367	0.0988
S. pneumoniae D39V, first compound 0.012 µg/mL	–	0.898	0.829
S. pneumoniae D39V, first compound 0.024 µg/mL	–	0.827	0.794
S. pneumoniae D39V, first compound 0.048 µg/mL	–	0.762	0.779
S. pneumoniae D39V, first compound 0.375 µg/mL	0.0439	0.0457	0.0281
S. pneumoniae D39V, first compound 0.75 µg/mL	0.0196	0.0558	0.0751
S. pneumoniae D39V, first compound 1.5 µg/mL	0.0385	0.0525	0.0578

fitness, S. pneumoniae D39V, one replicate
Settings	first compound 0.012 µg/mL	first compound 0.024 µg/mL	first compound 0.048 µg/mL
partner 2 µg/mL	0.886	0.861	0.794
partner 16 µg/mL	0.757	0.72	0.619

C[C@H]1c2cccc(O)c2C(=O)C2=C(O)[C@]3(O)C(=O)C(C(N)=O)=C(O)[C@@H](N(C)C)[C@@H]3[C@@H](O)[C@@H]21 [Doxycycline] + CC1=C(C(=O)O)N2C(=O)[C@@H](NC(=O)[C@H](N)c3ccccc3)[C@H]2SC1 [Cephalexin]
Settings	fitness
B. subtilis 168, first compound 0.02 µg/mL, partner 0.125 µg/mL	0.834
B. subtilis 168, first compound 0.02 µg/mL, partner 0.25 µg/mL	0.871
B. subtilis 168, first compound 0.02 µg/mL, partner 0.5 µg/mL	0.907
B. subtilis 168, first compound 0.04 µg/mL, partner 0.125 µg/mL	0.702
B. subtilis 168, first compound 0.04 µg/mL, partner 0.25 µg/mL	0.771
B. subtilis 168, first compound 0.04 µg/mL, partner 0.5 µg/mL	0.711
B. subtilis 168, first compound 0.08 µg/mL, partner 0.125 µg/mL	0.413
B. subtilis 168, first compound 0.08 µg/mL, partner 0.25 µg/mL	0.375
S. pneumoniae D39V, first compound 0.0155 µg/mL, partner 1 µg/mL	0.873
S. pneumoniae D39V, first compound 0.0155 µg/mL, partner 2 µg/mL	0.474
S. pneumoniae D39V, first compound 0.0155 µg/mL, partner 4 µg/mL	0.0211

fitness, one replicate
Settings	partner 0.125 µg/mL	partner 0.25 µg/mL	partner 0.5 µg/mL	partner 1 µg/mL	partner 2 µg/mL	partner 4 µg/mL
B. subtilis 168, first compound 0.02 µg/mL	–	–	–	≥ 1	–	–
B. subtilis 168, first compound 0.04 µg/mL	–	–	–	0.84	–	–
B. subtilis 168, first compound 0.08 µg/mL	–	–	–	0.793	–	–
S. pneumoniae D39V, first compound 0.003875 µg/mL	–	–	–	0.601	0.0976	0.0088
S. pneumoniae D39V, first compound 0.00775 µg/mL	–	–	–	0.722	0.186	0.0118
S. pneumoniae D39V, first compound 0.0155 µg/mL	0.902	0.867	0.879	–	–	–
S. pneumoniae D39V, first compound 0.031 µg/mL	0.916	0.885	0.887	0.756	0.634	0.0444
S. pneumoniae D39V, first compound 0.062 µg/mL	0.807	0.808	0.809	0.667	0.51	0.0551
